Patent publication US20230383292A1, “TARGETING XIST AND RNA METHYLATION FOR X REACTIVATION THERAPY” (The General Hospital Corporation, priority 2020, published 2023)

Columns and labels:
[1] = tested on: CDKL5 wt allele; assay: qPCR of CDKL5 wt allele reactivation (Xi reactivation) in human CDKL5 patient fibroblast line; format: cell-based; details: 0 nM-120 nM METTL3 ASO in combination with 20 nM XIST ASO 6B, day 5
Protocol: Mecp2-Luc fibroblast cell lines were a generous gift from Dr. Bedalov. The clonal hybrid (cast/mus) cell line (EY.T4) was previously developed in the lab (Yildirim E et al. (2011) Nat Struct Mol Biol 19:56-61). Passage number is kept below 25, no further verification of cell line identity was performed. Human CDKL5 patient fibroblast cell lines were a generous gift from Dr. Sheridan. The clones (CDKL5wtXa, CDKL5mutXa) were previously developed by Dr. Roy Perlis. (Smita J et al. (2019). They were maintained in DMEM-glutamax (Gibco), supplemented with fetal bovine serum (FBS, 10%), non-essential amino acids (1×, Gibco), HEPES buffer (25 mM, Gibco), penicillin/streptomycin (1×, Gibco) and 2-Mercaptoethanol (Sigma). Transfection was performed with 20 nM ASO assisted by Lipofectamine LTX with Plus reagent (Thermo Fisher).
RNA is isolated by Trizol (Life Technologies) extraction (tissues are snap frozen in liquid nitrogen and ground with pestle and mortar or put in Trizol and homogenized using a Qiagen TissueLyser), treated with TurboDNAse for 30 min at 37° C. 2 μg RNA is used for each of the reverse transcriptase (and rt minus control) reactions (Superscript III, Invitrogen) followed by the SYBR green qPCR using the primers listed in table, with annealing temperature of 60° C. for 45 cycles. The relative efficiency of the reactivations is calculated by comparing to GAPDH or TBP RNA as the internal control in mouse experiment. The relative efficiency of the reactivations is calculated by comparing to RPL13a as the internal control in human cells.
A human CDKL5 patient fibroblast line carrying mutation on the Xa was treated with XIST ASO 6B to XIST and RNA meth inhibitor. 116. On day 0, cells were treated with 20 nM of XIST ASO 6B and treated with 1 nM-1 uM of RNA meth inhibitor 116 on days 0 and 4 (FIG. 3B). On day 7, cells were harvested for qPCR analysis.
Experiments were designed to test Xi reactivation with METTL3 siRNA with and without XIST ASO 6B. A human CDKL5 patient fibroblast line carrying mutation on the Xa was treated with ASO to XIST and siRNA to METTL3. On day 0, cells were treated with 20 nM of XIST ASO 6B with 50 nM of METTL3 siRNA or 50 nM of Scr siRNA (FIG. 6A). On day 7, cells were harvested for qPCR analysis. […] METTL3 expression was relative to untreated levels, normalized to RPL13a. […] CDKL5 wt reactivation was normalized to CDKL5mut expression from the Xa chromosome.
Experiments were designed to test Xi reactivation in human CDKL5 patient's fibroblast using METTL3 ASOs. A human CDKL5 patient fibroblast line carrying mutation on the Xa was treated with XIST ASO 6B to XIST and METTL3 ASOs to METTL3. On day 0, cells were treated with 20 nM of XIST ASO 6B and 0 nM-120 nM of METTL3 ASOs, also on at day 0. On day 5, cells were harvested for qPCR analysis. […] CDKL5 wt reactivation was normalized to CDKL5mut expression from the Xa chromosome (FIGS. 13A-13C). […] All of the ASOs targeting METTL3 increased Xi reactivation of CDKL5 compared to using the XIST ASO alone. A one way ANOVA, multiple comparison test provided the following data: P=0.0730 for ASO3-3 (ns); P=0.0073 for ASO3-6; and P=0.0141 for ASO3-7.

[2] = tested on: human XIST transcript; assay: XIST knock down by XIST ASOs (Table 1); format: cell-based; design: ASO conc at max KD: unit not given here; details: for % Max KD: XIST knock down, cells treated for 72 hrs with XIST ASO; for ASO conc at max KD: concentration of XIST ASO giving max KD, 72 hrs
From the text: The methods include administering an inhibitor of an XIST RNA itself, e.g., an inhibitory nucleic acid targeting XIST RNA. Although in typical usage XIST refers to the human sequence and XIST to the mouse sequence, in the present application the terms are used interchangeably. The human XIST sequence is available in the ensemble database at ENSG00000229807; it is present on Chromosome X at 73,820,651-73,852,753 reverse strand (Human GRCh38.p2). The sequences of exons 1-6 are shown in SEQ ID NOs:73-79 (see FIG. 2); XIST exons correspond to 601-11972 (exon 1); 15851-15914 (exon 2); 19593-20116 (exon 3); 21957-21984 (exon 4); 22080-22288 (exon 5); and 23887-33304 (exon 6). […] The inhibitory nucleic acid targeting XIST RNA can be any inhibitory nucleic acid as described herein, and can include modifications described herein or known in the art. In some embodiments, the inhibitory nucleic acid is an antisense oligonucleotide (ASO) that targets a sequence in XIST RNA, e.g., a sequence within an XIST exon as shown in SEQ ID NO:1-45 or within the RNA sequence as set forth in NR_001564.2, preferably wherein the ASO comprises a sequence as shown in Table 1. In some embodiments, the inhibitory nucleic includes at least one locked nucleotide, e.g., is a locked nucleic acid (LNA). Table 1 provides a list of ASOs that have more than 80% XIST knock down when cells are treated for 72 hrs with the below XIST ASOs.

Row | Substance | Xi reactivation (CDKL5 wt allele) [1] | % Max KD [2] | ASO conc at max KD [2]
1 | ASO3-3: ASO targeting human METTL3, TAGTACGGGTATGTTGAGC, SEQ ID NO 100 (listed as DNA, chemistry not fully specified) | 1-2% |  | 
2 | ASO 6I: XIST antisense oligonucleotide GTTCTGCACCTATCAGGCAG, SEQ ID NO 25 (listed as DNA, chemistry not given here) |  | 93% | 20
3 | ASO 6D: XIST antisense oligonucleotide TCAAGACTGGCCCAGGCATA, SEQ ID NO 17 (listed as DNA, chemistry not given here) |  | 96% | 20
4 | ASO 4P: XIST antisense oligonucleotide GTTGTTGCCCAGTGGTAGTG, SEQ ID NO 33 (listed as DNA, chemistry not given here) |  | 88% | 100
5 | ASO 1X: XIST antisense oligonucleotide ACTCAGCAGCAATGGCAAAG, SEQ ID NO 29 (listed as DNA, chemistry not given here) |  | 89% | 100
6 | ASO 6R: XIST antisense oligonucleotide GGCCTTGTGTCACAAGTCTC, SEQ ID NO 6 (listed as DNA, chemistry not given here) |  | 99% | 100
7 | ASO3-6: ASO targeting human METTL3, CCATGGCTATGGATTCTTAG, SEQ ID NO 102 (listed as DNA, chemistry not fully specified) | 2-3% |  | 
8 | ASO 6S: XIST antisense oligonucleotide CTGAGGATTGTTTCTGAAAG, SEQ ID NO 21 (listed as DNA, chemistry not given here) |  | 95% | 100
9 | ASO 5B: XIST antisense oligonucleotide TTTCTTGGACCTGCTGAAGA, SEQ ID NO 20 (listed as DNA, chemistry not given here) |  | 95% | 20
10 | ASO 1A: XIST antisense oligonucleotide TAGTTAGCACTCCTGCTGCT, SEQ ID NO 7 (listed as DNA, chemistry not given here) |  | 98% | 20
11 | ASO 5A: XIST antisense oligonucleotide CAAATTTCTTGGACCTGCTG, SEQ ID NO 16 (listed as DNA, chemistry not given here) |  | 96% | 20
12 | ASO 6P: XIST antisense oligonucleotide CCAGAGTGGTAGAAGAGATA, SEQ ID NO 27 (listed as DNA, chemistry not given here) |  | 92% | 20
13 | ASO 5P: XIST antisense oligonucleotide GTTCAAATTTCTTGGACCTG, SEQ ID NO 34 (listed as DNA, chemistry not given here) |  | 88% | 20
14 | ASO 1T: XIST antisense oligonucleotide AGGATGAACCATGTGGTGAT, SEQ ID NO 24 (listed as DNA, chemistry not given here) |  | 93% | 20
15 | ASO 1P: XIST antisense oligonucleotide TAGCTCATGCAATGCACATG, SEQ ID NO 2 (listed as DNA, chemistry not given here) |  | 99% | 100
16 | ASO 6T: XIST antisense oligonucleotide CCCACAGAAAGTAATCACCA, SEQ ID NO 31 (listed as DNA, chemistry not given here) |  | 89% | 20
17 | ASO 1E: XIST antisense oligonucleotide GAATTCCTCTTCTGCCACCT, SEQ ID NO 28 (listed as DNA, chemistry not given here) |  | 91% | 20
18 | ASO 5Q: XIST antisense oligonucleotide CAGATAGGAACAATGAAGAG, SEQ ID NO 30 (listed as DNA, chemistry not given here) |  | 89% | 100
19 | ASO 1G: XIST antisense oligonucleotide CTGAGATCACAGACAAATGG, SEQ ID NO 19 (listed as DNA, chemistry not given here) |  | 95% | 20
20 | ASO 6B: XIST antisense oligonucleotide AGAAGTCTGGCACATCTGTG, SEQ ID NO 11 (listed as DNA, chemistry not given here) |  | 98% | 100
